Laboratory results taken from patent US8425945B2, “Methods and compositions for regulating biofilm development” (NewSouth Innovations Pty Limited, priority 2005, dated 2013).

How the values were obtained:
P. aeruginosa PAO1 = test: Biofilm to planktonic transition on microscope slides in petri dishes with NO donors/scavenger; assay type: cell-based, Pseudomonas aeruginosa; conditions: for biofilm formation (percentage of surface coverage) / planktonic growth (OD600 nm of supernatant): NO donor 1 μM, 24 hours, lesser extent than SNP
S. marcescens biofilms = test: Dispersal of biofilms on slides, surface coverage; assay type: cell-based, Serratia marcescens; conditions: SNAP 100 nM, 24 hours
Vibrio cholerae biofilms = test: Dispersal of biofilms on slides, surface coverage; assay type: cell-based; conditions: 1 μM GSNO, 24 hours
P. aeruginosa biofilms = test: Sensitivity of biofilms grown with SNP to antimicrobial agents; assay type: cell-based, Pseudomonas aeruginosa; conditions: tobramycin 100 μM, 30 minutes, with 500 nM SNP

For `CC(=O)N[C@H](C(=O)O)C(C)(C)SN=O` (racemic) [SNAP, S-nitroso-N-acetylpenicillamine], the “biofilm formation (percentage of surface coverage)” value (P. aeruginosa PAO1) was “decreases in biofilm formation”, the “planktonic growth (OD600 nm of supernatant)” value (P. aeruginosa PAO1) was “increases in planktonic growth” and the dispersal of biofilms (S. marcescens biofilms) was “effective for dispersal”.
For `N[C@@H](CCC(=O)N[C@@H](CSN=O)C(=O)NCC(=O)O)C(=O)O` [GSNO, S-nitroso-L-glutathione], the “biofilm formation (percentage of surface coverage)” value (P. aeruginosa PAO1) was “decreases in biofilm formation”, the “planktonic growth (OD600 nm of supernatant)” value (P. aeruginosa PAO1) was “increases in planktonic growth” and the stability of biofilms (Vibrio cholerae biofilms) was “significant effect on stability”.
`CC1(C)N([O])C(c2ccccc2)=[N+]([O-])C1(C)C` [PTIO, 2-phenyl-4,4,5,5-tetramethyl-imidazoline-1-oxyl 3-oxide] was tested, and the “reduction of the SNP effect in both planktonic and biofilm phenotypes” value (P. aeruginosa PAO1; PTIO 1 mM in addition to SNP 500 nM) was ≥ 40%.
With `NC[C@H]1O[C@H](O[C@H]2[C@H](O)[C@@H](O[C@H]3O[C@H](CO)[C@@H](O)[C@H](N)[C@H]3O)[C@H](N)C[C@@H]2N)[C@H](N)C[C@@H]1O` [tobramycin] the “antimicrobial giving the highest effect in combination with SNP” value (P. aeruginosa biofilms) was “highest effect”.
